Data set [1] in a line: Stability test in liver microsomes, mouse. Particulars: CD-1; mouse liver microsomes 0.5 mg/mL, 1.0 μM substrate, up to 60 min; read-out: Metabolic half-life in mouse liver microsome (T½, min). In kind it is in vitro ADME, CD-1 mice.
The next data set concerns DOHH-2 cell strain. Nature of the data set: Tumor cell proliferation inhibition assay (CellTiter-Glo), DOHH-2. The conditions noted are these: Homo sapiens, 120 h, DOHH-2 cells, 5-day treatment. In kind it is cell-based. The method in brief: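 Seed cells; 24 h later add compound (10 gradients, 1:3, max 10 μM; DMSO ctrl). Incubate 5 d, 37° C./5% CO2. Measure ATP via CellTiter-Glo.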
In general terms: In ATP-based viability assays light output follows the ATP content of the culture.

Data set [2] is described as follows: Metabolic stability test in hepatocytes, rat. Format: in vitro ADME. Particulars: hepatocytes (suspension), Table 5: metabolic stability in hepatocytes, up to 90 min, read-out: Metabolic half-life in rat liver microsome (T½, min). The method, then:
(§1) This experimental example was used to test the metabolic stability of the compounds in hepatocytes.
(§2) A suspension of hepatocytes was prepared at 0.5×10^6/mL with a pre-heated medium, then 198 μL of the pre-heated cell suspension was added to a 96-well plate. To each well of the 96-well plate, 2 μL of the test compound was added so that the final concentration was 1 μM, and 2 replicate wells were set. For the T=0 min sample, the compound was mixed well with the cells for 1 min, then […] was immediately added to 125 μL of a stop solution (an acetonitrile solution containing 200 ng/mL tolbutamide and 200 ng/mL labetalol) under an ice bath and mixed well. At the same time, all the plates were placed in an incubator at 37° C. with 5% CO2, with the shaker set at 600 rpm. The sample was mixed well at 15, 30, 60, and 90 min of incubation, respectively, and 25 μL of the sample was added to 125 μL of a stop solution (an acetonitrile solution containing 200 ng/mL tolbutamide and 200 ng/mL labetalol) under an ice bath, mixed well, and shaken at 500 rpm for 10 min. Subsequently, the plate was centrifuged for 20 min at 3220×g at 4° C. After the centrifugation was completed, 80 μL of the supernatant from each well was transferred to another 96-well plate containing 240 μL of ultrapure water. Subsequently, analysis was carried out using LC-MS/MS, and intrinsic clearance (CLint) and half-life (T½) were calculated.
On the technique in general: Liver microsomes are vesicles of endoplasmic reticulum, rich in cytochrome P450 enzymes.

Data set [3] in a line: Stability test in liver microsomes, rat. Particulars: Sprague-Dawley; rat liver microsomes 0.5 mg/mL, 1.0 μM substrate, up to 60 min; read-out: Metabolic half-life in rat liver microsome (T½, min). In kind it is in vitro ADME, Sprague-Dawley rats.
Data set [4] is described as follows: Pharmacokinetic test in rats (IV and PO). Format: in vivo. The conditions noted are these: rat, plasma, SD rats; for half-life: read-out: T½ (converted).
The next data set deals with T1, CYP1A2 (Homo sapiens, UniProt P05177).
T1 construct: from tissue; host or cells: liver microsome
T1 sequence (P05177 1-516): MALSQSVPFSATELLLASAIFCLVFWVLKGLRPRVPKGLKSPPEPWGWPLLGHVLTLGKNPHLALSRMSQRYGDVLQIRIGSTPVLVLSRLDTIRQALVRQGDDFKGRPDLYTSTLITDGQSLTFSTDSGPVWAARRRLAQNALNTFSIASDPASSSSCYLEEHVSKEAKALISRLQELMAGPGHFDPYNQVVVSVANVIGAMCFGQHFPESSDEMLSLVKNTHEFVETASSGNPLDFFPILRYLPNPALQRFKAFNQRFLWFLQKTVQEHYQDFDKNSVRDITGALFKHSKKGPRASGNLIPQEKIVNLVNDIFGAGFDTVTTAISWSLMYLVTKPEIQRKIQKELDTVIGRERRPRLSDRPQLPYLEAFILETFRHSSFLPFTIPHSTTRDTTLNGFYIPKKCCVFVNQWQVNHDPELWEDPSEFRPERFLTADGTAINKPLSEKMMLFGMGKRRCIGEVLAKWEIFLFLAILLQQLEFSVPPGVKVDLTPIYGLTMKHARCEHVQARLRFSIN
Nature of the data set: Cytochrome oxidase P450 inhibition test, CYP1A2. Format: in vitro ADME. Particulars: liver microsome incubation. The method, then: (§3) 100 mM K-Buffer: 9.5 mL of stock solution A was mixed with 40.5 mL of stock solution B, the total volume was adjusted to […] with ultrapure water, and the buffer was titrated to pH 7.4 with KOH or H3PO4. • Starting material A (1 M potassium dihydrogen phosphate): 136.5 g of potassium dihydrogen phosphate in 1 L of water. • Stock B […] in 1 L of water. The test substance powder was prepared into a stock solution with a certain concentration using DMSO or other organic solvents, which was then further diluted using a proper organic solvent. The extracorporeal incubation system for CYP450 enzyme metabolism phenotype study was biochemical reaction of a prepared liver microsome, a redox coenzyme, and an enzyme-specific selective inhibitor in simulated physiological temperature and environment. The concentration of the parent drug or a metabolite thereof in the incubation solution was determined by LC-MS/MS.

The target in another data set is T2, CYP2C9 (Homo sapiens, UniProt P11712).
T2 construct: from tissue; host or cells: liver microsome
T2 sequence (P11712 whole entry): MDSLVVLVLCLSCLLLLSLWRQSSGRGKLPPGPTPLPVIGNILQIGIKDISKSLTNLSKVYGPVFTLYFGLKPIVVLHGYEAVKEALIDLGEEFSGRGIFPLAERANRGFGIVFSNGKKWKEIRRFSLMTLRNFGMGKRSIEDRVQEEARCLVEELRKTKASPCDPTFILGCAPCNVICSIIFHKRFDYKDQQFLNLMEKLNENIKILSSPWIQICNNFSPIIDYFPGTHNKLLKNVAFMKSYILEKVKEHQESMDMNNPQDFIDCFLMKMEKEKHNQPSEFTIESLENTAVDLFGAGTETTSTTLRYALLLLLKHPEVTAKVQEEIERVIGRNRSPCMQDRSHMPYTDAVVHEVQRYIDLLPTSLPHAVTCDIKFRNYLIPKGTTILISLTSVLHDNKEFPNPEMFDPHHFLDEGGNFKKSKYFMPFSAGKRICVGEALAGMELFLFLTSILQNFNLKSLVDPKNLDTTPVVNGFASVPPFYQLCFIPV
Nature of the data set: Cytochrome oxidase P450 inhibition test, CYP2C9. Format: in vitro ADME. The conditions noted are these: liver microsome incubation. The method, then:
as §3

In a further data set the target is T3, CYP2C19 (Homo sapiens, UniProt P33261).
T3 construct: from tissue; host or cells: liver microsome
T3 sequence (P33261 whole entry): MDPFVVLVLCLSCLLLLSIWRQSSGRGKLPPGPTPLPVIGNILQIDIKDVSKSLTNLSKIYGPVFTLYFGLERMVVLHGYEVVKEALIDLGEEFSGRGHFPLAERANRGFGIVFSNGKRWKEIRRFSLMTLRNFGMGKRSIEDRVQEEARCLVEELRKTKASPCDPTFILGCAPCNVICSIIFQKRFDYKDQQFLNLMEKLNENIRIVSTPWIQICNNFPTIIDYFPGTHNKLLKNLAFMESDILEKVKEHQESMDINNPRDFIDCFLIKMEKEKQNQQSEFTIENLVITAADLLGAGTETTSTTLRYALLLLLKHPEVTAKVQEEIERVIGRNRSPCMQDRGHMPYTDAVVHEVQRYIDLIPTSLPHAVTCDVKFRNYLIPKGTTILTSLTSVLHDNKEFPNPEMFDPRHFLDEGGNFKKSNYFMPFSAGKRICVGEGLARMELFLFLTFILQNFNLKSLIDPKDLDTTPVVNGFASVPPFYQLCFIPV
In words: Cytochrome oxidase P450 inhibition test, CYP2C19. In kind it is in vitro ADME. The conditions noted are these: liver microsome incubation. As to the method:
as §3

Another data set has as its target T4, CYP2D6 (Homo sapiens, UniProt P10635).
T4 construct: from tissue; host or cells: liver microsome
In words: Cytochrome oxidase P450 inhibition test, CYP2D6. In kind it is in vitro ADME. The conditions noted are these: liver microsome incubation. The method, then: as §3

Data set [5] is described as follows: Metabolic stability test in hepatocytes, human. The conditions noted are these: hepatocytes (suspension), Table 5: metabolic stability in hepatocytes, up to 90 min, read-out: Metabolic half-life in human liver microsome (T½, min). In kind it is in vitro ADME. As to the method:
as §1
as §2, with “After the centrifugation was completed, 80 μL of the supernatant from each well was transferred to another 96-well plate containing 240 μL of ultrapure water.” left out

Setting [6] is: IC50 score, read-out: Tumor cell 5-day relative growth inhibition (DOHH-2) (nM), score.
[7] abbreviates: IC50 value, read-out: Tumor cell 5-day relative growth inhibition (DOHH-2).

The results in this text go back to patent US20240391923A1, “METHIONINE ADENOSYLTRANSFERASE 2A INHIBITOR FOR TREATING MTAP DELETION-TYPE CANCER” (SUZHOU GENHOUSE BIO CO., LTD., priority 2022, published 2024).

As a reminder, the AUC is concentration integrated over time. A high value points to high exposure.

Where two headings read alike, the source gives them in different places. A value given as a limit tells only on which side of the number the result lay.

T4 sequence (P10635 whole entry): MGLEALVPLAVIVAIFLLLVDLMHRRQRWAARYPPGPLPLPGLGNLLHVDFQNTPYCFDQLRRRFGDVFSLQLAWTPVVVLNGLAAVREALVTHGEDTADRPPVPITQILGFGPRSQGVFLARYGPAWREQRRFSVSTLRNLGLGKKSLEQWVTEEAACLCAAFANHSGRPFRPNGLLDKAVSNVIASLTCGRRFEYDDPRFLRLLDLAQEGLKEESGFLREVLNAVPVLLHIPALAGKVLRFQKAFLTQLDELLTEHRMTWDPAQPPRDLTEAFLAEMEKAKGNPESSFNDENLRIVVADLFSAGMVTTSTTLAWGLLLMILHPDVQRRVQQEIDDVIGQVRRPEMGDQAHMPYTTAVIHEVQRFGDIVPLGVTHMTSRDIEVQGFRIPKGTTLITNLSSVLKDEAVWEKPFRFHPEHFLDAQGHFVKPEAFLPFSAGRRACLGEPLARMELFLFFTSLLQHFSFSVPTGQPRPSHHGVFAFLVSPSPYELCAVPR

On to `Cn1cc2c(n1)c(=O)n(-c1cccc(O)c1)c1nc(C(F)(F)F)ccc21` [Compound B148], for which the half-life at 1 μM was determined as 120 min in [1], 50.9 min in data set [2] and 142 min in [3]. The IC50 in the data set with DOHH-2 cell strain (setting [6]) was < 500 nM; in the data set with DOHH-2 cell strain (setting [7]), 443 nM.
With `Cn1cc2c(n1)c(=O)n(-c1cccc3[nH]ncc13)c1cc(Cl)c(F)cc21` [Compound B257], in data set [4] (IV 1 mg/kg), the AUC is 177 µM·h, the clearance is 0.283 mL/min/kg and the half-life is 8.8 h. Also, in [4] (IV 1 mg/kg, PO 10 mg/kg), the bioavailability is 243%. In addition, the half-life in data set [4] (PO 10 mg/kg) was 72.8 h.
As to `Cn1cc2c(n1)c(=O)n(-c1cccc3[nH]ncc13)c1cc(Cl)ccc21` [Compound B60], the IC50 on CYP1A2 was > 10000 nM; at CYP2C9, > 10000 nM; in the data set on DOHH-2 cell strain (setting [6]), < 500 nM; in the data set on DOHH-2 cell strain (setting [7]) it was 39.1 nM; against CYP2C19, > 10000 nM; against CYP2D6 it was > 10000 nM. Besides, the half-life at 1 μM in data set [1] and in data set [3] was > 145 min each time.
For the molecule `Cc1ncccc1-n1c(=O)c2nn(C)cc2c2ccc(C(F)(F)F)nc21` (single isomer, unassigned) [Compound B180], the IC50 is > 10000 nM on CYP1A2; > 10000 nM against CYP2C9; < 500 nM with DOHH-2 cell strain (setting [6]); 134 nM in the data set with DOHH-2 cell strain (setting [7]); > 10000 nM against CYP2C19; > 10000 nM on CYP2D6. Besides, the half-life at 1 μM in [2] was found to be 51.1 min.
On to `Cn1cc2c(n1)c(=O)n(-c1cccnc1C1CC1)c1cc(Cl)c(F)cc21` [Compound B340], for which, in data set [4] (IV 1 mg/kg), the AUC is 10.2 µM·h, the clearance was 4.5 mL/min/kg and the half-life was 6.7 h. In [4] (PO 5 mg/kg), the AUC stood at 68.9 µM·h and the half-life is 14.7 h. In [2], the half-life at 1 μM stood at 150 min. Besides, in data set [5], the half-life at 1 μM was > 217 min.
For `Cn1cc2c(n1)c(=O)n(-c1cccnc1)c1cc(Cl)ccc21` [Compound B12], the IC50 was > 10000 nM against CYP1A2; > 10000 nM on CYP2C9; 500 to 2000 nM in the data set on DOHH-2 cell strain (setting [6]); 1110 nM in the data set on DOHH-2 cell strain (setting [7]); > 10000 nM at CYP2C19; > 10000 nM at CYP2D6. Also, the half-life at 1 μM in data set [1] and in data set [3] was > 145 min each time. For the same molecule, the AUC in data set [4] (IV 1 mg/kg) was 18.9 µM·h; in data set [4] (PO 5 mg/kg), 223 µM·h. Besides, the clearance in [4] (IV 1 mg/kg) was 2.67 mL/min/kg. Moreover, in data set [4] (IV 1 mg/kg, PO 5 mg/kg), the bioavailability turned out to be 217%. Moreover, the half-life in [4] (IV 1 mg/kg) was 3.4 h; in data set [4] (PO 5 mg/kg), 3.7 h.
Turning to `Cn1cc2c(n1)c(=O)n(-c1cccc3[nH]ncc13)c1nc(C(F)(F)F)ccc21` [Compound B181], the IC50 against CYP1A2 is > 30000 nM; against CYP2C9 it was > 30000 nM; with DOHH-2 cell strain (setting [6]), 500 to 2000 nM; in the data set with DOHH-2 cell strain (setting [7]), 1040 nM; on CYP2C19 it was > 30000 nM; against CYP2D6, > 30000 nM. In addition, the half-life at 1 μM is > 145 min in data set [1], > 145 min in data set [3] and > 217 min in [5]. Also, the exposure (AUC) amounted to 120 µM·h in data set [4] (IV 1 mg/kg) and 541 µM·h in data set [4] (PO 5 mg/kg). This molecule gave a clearance in [4] (IV 1 mg/kg) of 0.333 mL/min/kg. Also, the bioavailability in data set [4] (IV 1 mg/kg, PO 5 mg/kg) came out at 90%. The half-life in [4] (IV 1 mg/kg) was 6.7 h; in data set [4] (PO 5 mg/kg), 9.5 h.
As for `Cn1cc2c(n1)c(=O)n(-c1ccccc1Cl)c1nc(C(F)(F)F)ccc21` [Compound B182], the half-life at 1 μM in data set [1] came out at 136 min; in [3] it was 20.4 min.
